Experimental findings from ChEMBL document CHEMBL1201862, “PubChem BioAssay data set” (2004) are described below.

Molecules are shown by their SMILES. Activity calls are given as the source filed them.

Assay [1] relates to HeLa. Description: HeLa cell cytotoxicity, dose response, cytotoxicity control for MITF activator project, CellTiter-Glo luminescence, cherry-pick samples (AID 540259). It is filed as functional, cell-based. Conditions: Homo sapiens. Background: Cellular ATP, detected with luciferase, serves as a proxy for viable cell number.
Assay [2] deals with T1, Cysteine protease ATG4B (Homo sapiens, UniProt Q9Y4P1).
T1 sequence (Q9Y4P1 whole entry): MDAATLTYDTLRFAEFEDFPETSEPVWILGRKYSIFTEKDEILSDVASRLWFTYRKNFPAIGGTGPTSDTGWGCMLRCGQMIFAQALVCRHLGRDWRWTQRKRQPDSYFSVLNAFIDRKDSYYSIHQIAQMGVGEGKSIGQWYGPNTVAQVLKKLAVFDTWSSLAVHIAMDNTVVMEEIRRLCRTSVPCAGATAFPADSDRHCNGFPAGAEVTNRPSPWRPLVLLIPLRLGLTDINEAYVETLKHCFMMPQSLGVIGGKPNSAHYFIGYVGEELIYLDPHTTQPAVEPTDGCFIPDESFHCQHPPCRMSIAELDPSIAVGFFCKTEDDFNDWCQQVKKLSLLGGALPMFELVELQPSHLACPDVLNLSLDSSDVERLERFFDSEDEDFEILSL
It is filed as functional.

The target of assay [3] is Phospholipase A2 (Homo sapiens, UniProt P04054). It is filed as functional.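 Note: confirmatory dose-response counterscreen on phospholipase A2, testing hits that came from an ultra-high-throughput screen for ATG4B inhibitors.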
Assay [4] addresses T2, High affinity choline transporter 1 (Homo sapiens, UniProt Q9GZV3).
T2 sequence (Q9GZV3 whole entry): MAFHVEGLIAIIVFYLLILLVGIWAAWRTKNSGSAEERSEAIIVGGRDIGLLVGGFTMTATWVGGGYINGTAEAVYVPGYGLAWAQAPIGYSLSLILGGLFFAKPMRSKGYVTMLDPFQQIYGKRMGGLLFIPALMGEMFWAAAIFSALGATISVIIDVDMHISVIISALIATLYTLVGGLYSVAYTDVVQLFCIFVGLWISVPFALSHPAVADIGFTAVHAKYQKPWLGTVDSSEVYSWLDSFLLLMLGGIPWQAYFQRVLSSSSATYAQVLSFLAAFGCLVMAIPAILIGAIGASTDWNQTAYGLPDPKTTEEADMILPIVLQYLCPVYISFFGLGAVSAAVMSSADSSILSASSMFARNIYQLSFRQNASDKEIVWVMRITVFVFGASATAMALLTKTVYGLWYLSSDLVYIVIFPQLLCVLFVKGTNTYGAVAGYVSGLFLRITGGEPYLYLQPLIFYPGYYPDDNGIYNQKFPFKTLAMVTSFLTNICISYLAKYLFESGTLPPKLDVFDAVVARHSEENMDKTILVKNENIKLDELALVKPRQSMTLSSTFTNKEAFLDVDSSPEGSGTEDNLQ
Nature of the assay: CHT inhibitors, dose response, cell-based, 5-point CRC, membrane potential dye (AID 504840). It is filed as functional.

In assay [5] the target is Glucose-6-phosphate 1-dehydrogenase (Homo sapiens, UniProt P11413). Description: human G6PD enzyme inhibitors, dose response, selectivity assay for P. falciparum G6PD inhibitor project, biochemical, fluorescence (AID 504792). It is filed as functional.
The nature of assay [6]: C. albicans growth with fluconazole, confirmation, fluorescence, retest (AID 2467). It is filed as functional, cell-based.
The nature of assay [7]: NIH-3T3 fibroblast cytotoxicity, dose response, cytotoxicity control, cell-based, fluorescence, Alamar Blue, secondary assay (AID 2327).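 Note: NIH-3T3 mouse fibroblasts cultured with fluconazole at 8 µg/mL.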 It is filed as functional. (Alamar Blue is a resazurin reagent that responds to reducing activity.)
Assay [8] relates to HEK293. Description: inhibitors of LMP1-driven NF-kB reporter, dose response, cell-based, HEK293, luciferase, cherry-pick (AID 588343). It is filed as functional. Particulars: Homo sapiens.
Assay [9] has as its system INS1. Description: beta cell apoptosis inhibitors, cytokine rescue, dose response, luminescence, retest (AID 449756).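 Note: cell death triggered by IL-1 beta plus TNF-alpha plus IFN-gamma mixture; protective hits raise ATP signal compared with cytokine alone wells.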 It is filed as functional, cell-based. Conditions: Rattus norvegicus.
Assay [10] addresses T3, Calpain-2 catalytic subunit (Sus scrofa, UniProt P43367).
T3 sequence (P43367 whole entry): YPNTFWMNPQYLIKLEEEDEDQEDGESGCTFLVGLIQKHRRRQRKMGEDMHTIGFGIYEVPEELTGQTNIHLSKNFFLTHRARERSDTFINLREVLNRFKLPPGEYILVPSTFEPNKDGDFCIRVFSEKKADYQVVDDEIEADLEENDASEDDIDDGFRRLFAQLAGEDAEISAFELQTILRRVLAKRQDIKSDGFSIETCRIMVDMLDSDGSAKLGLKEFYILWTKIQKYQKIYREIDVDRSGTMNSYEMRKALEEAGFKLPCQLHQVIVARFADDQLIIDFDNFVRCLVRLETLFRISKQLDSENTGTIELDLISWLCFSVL
Description: pig calpain II inhibitor potency, dose response, biochemical, fluorogenic peptide substrate (AID 1420). It is filed as functional.

Assay [11] concerns the target Cytochrome P450 2C19 (Homo sapiens, UniProt P33261). Description: Cytochrome panel assay with activity outcomes. Panel member name: p450-cyp2c19 Compounds with AC50 equal or less than 10 uM are considered active. Conditions: read-out: AC50. It is filed as functional.
Assay [12] in a line: growth suppression of beta-catenin-knockout colon cells, dose response, cell-based, HCT116, human colon tumor (AID 1045).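 Note: HCT116 colon tumor cells with beta catenin knocked out; cells exposed to compound for 60 hours.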 It is filed as functional.
The target in assay [13] is T4, SUMO-activating enzyme (Homo sapiens, UniProt Q9UBT2). Nature of the assay: inhibitors of in vitro SUMOylation cascade, primary screen, biochemical, HTRF, uHTS (AID 2006). It is filed as protein-complex assay. (TR-FRET usually uses a lanthanide donor and a delayed reading to cut background.)
The target in assay [14] is T4, SUMO-activating enzyme. Nature of the assay: SUMOylation inhibitor hit validation, confirmation, SUMOylation inhibitor project, biochemical, AlphaScreen (AID 2018). It is filed as functional.
A short description of assay [15]: growth suppression of PTEN-null colon cells, dose response, cell-based, HCT116 PTEN knockout (AID 1047).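 Note: HCT116 colon tumor cells with PTEN knocked out; cells exposed to compound for 60 hours before readout; potency for loss of cell viability measured by luminescence.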 It is filed as functional.
Assay [16] deals with Cytochrome P450 2C9 (Homo sapiens, UniProt P11712).
In assay [17] the target is T5, Leucine aminopeptidase (Plasmodium falciparum 3D7, UniProt Q8IL11).
T5 sequence (Q8IL11 whole entry): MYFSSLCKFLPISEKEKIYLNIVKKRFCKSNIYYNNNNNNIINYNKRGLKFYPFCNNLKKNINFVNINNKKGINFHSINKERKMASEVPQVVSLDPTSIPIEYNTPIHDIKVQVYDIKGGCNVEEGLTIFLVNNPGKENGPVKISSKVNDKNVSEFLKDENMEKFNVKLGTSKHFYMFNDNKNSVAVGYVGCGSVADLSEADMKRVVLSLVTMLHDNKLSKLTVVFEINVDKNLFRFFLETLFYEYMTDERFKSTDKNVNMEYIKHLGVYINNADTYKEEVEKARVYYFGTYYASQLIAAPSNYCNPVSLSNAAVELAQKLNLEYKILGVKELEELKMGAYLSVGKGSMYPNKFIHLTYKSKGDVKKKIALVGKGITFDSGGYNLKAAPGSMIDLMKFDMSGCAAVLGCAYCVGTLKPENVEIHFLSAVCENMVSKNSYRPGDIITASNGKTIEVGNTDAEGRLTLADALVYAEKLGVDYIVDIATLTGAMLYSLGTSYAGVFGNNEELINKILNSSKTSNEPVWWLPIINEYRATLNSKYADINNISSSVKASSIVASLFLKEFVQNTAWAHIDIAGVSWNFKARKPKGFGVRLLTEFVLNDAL
Description: P. falciparum M17LAP inhibitors, primary screen, biochemical, fluorogenic H-Leu-NHMec substrate, 1536-well (AID 1619). It is filed as functional.

Assay [18] concerns the target Dual specificity tyrosine-phosphorylation-regulated kinase 1A (Rattus norvegicus, UniProt Q63470). It is filed as biochemical, Homo sapiens.
The subject of assay [19] is H9c2. Nature of the assay: cells. It is filed as functional, cell-based. Conditions: Rattus norvegicus, H9c2, Myocardium.
Assay [20] concerns the target Aurora kinase B (Homo sapiens, UniProt Q96GD4). It is filed as functional.
The target of assay [21] is T6, Aurora kinase A (Homo sapiens, UniProt O14965).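 Note: value from the Navigating the Kinome kinase panel profiling, panel entry STK6.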
T6 sequence (O14965 whole entry): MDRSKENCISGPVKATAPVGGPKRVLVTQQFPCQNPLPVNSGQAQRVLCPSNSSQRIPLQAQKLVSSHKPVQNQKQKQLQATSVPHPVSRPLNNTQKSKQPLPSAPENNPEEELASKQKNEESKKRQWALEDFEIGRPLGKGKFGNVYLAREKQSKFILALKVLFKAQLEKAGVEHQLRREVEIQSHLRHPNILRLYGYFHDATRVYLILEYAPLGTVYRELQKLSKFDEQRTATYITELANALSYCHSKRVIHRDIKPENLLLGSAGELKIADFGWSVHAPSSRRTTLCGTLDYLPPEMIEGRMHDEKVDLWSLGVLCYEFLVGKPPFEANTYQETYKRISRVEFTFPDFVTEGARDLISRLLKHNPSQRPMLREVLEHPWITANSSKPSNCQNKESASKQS
It is filed as functional.

Assay [22] deals with Vascular endothelial growth factor receptor 2 (Homo sapiens, UniProt P35968). It is filed as functional.
A short description of assay [23]: intracellular Trypanosoma cruzi inhibitors in host cells – cell-based, plate reader, cherry-pick samples, set 3, dose response (AID 651818).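 Note: compounds incubated with infected cells for about four days.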 It is filed as functional.
Assay [24] is described as follows: inhibitors of intracellular T. cruzi replication, confirmation, NIH3T3 host cells, beta-gal luminescence (AID 2044).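 Note: intracellular parasites grown in NIH/3T3 mouse fibroblasts as host cells; luminescent beta-galactosidase reporter signal from transgenic T. cruzi replicating inside host cells; inhibitors lower the luminescence signal.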 It is filed as functional, cell-based.
A short description of assay [25]: cytotoxicity toward NIH3T3 fibroblasts, dose response, counter-screen, cell-based, ATP luminescence, mouse fibroblasts (AID 2010).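 Note: cells exposed to compound for about 90 hours before reading.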 It is filed as functional.

Aurora kinase B, sequence (Q96GD4 whole entry): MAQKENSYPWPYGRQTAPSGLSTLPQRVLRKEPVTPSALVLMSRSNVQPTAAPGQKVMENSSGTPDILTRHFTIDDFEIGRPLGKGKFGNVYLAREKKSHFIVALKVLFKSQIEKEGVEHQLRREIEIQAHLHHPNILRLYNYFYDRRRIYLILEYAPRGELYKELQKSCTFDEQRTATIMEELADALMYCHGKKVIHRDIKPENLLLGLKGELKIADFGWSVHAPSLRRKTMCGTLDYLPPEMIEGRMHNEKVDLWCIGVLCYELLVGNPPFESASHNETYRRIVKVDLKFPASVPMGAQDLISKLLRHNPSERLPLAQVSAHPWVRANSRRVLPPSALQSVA
Glucose-6-phosphate 1-dehydrogenase, sequence (P11413 whole entry): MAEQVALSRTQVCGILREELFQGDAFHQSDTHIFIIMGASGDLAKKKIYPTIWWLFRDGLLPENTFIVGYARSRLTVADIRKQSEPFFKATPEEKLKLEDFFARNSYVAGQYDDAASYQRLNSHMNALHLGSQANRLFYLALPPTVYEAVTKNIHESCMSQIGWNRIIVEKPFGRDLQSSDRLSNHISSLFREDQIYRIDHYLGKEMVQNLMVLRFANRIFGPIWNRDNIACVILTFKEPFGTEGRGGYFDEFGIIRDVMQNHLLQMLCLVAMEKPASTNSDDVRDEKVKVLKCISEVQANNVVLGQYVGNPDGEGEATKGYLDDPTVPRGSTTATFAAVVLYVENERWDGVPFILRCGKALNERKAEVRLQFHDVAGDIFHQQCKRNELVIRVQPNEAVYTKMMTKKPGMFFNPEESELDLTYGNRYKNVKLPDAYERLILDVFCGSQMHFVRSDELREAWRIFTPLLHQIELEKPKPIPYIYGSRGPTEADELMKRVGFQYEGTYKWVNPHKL
Vascular endothelial growth factor receptor 2, sequence (P35968 whole entry): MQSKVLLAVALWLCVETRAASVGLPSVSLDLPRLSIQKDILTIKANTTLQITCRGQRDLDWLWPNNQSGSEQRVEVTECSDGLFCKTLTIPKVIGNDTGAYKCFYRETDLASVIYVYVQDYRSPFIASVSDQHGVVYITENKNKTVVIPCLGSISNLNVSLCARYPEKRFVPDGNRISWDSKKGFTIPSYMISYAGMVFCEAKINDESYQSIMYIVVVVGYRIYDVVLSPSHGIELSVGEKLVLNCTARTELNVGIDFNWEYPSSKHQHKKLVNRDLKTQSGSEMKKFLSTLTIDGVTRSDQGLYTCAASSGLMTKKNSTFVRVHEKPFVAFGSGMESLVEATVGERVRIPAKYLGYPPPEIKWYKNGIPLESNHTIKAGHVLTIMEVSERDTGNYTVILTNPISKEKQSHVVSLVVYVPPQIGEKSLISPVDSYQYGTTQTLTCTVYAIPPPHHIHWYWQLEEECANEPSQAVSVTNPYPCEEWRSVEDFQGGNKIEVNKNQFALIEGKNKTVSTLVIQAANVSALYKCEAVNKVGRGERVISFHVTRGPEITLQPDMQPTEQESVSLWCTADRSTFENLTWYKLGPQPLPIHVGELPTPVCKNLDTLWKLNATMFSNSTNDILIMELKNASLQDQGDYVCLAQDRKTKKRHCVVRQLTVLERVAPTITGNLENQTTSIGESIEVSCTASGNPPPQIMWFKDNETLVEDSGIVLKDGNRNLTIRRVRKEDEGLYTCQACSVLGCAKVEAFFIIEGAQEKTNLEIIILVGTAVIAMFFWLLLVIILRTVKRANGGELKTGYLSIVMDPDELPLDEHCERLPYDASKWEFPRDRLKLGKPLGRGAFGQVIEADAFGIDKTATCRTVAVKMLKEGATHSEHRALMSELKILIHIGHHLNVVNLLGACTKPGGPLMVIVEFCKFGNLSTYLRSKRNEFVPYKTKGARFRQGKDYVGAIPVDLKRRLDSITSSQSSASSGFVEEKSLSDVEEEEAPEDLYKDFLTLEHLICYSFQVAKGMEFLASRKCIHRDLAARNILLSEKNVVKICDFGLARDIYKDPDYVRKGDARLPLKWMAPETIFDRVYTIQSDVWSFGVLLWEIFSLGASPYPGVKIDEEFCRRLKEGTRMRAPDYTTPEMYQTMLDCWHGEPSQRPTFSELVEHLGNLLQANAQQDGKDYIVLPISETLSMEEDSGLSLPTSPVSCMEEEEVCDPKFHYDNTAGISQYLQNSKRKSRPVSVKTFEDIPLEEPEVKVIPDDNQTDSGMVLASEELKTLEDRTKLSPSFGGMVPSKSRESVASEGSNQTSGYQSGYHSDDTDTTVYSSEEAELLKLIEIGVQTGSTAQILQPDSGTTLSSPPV
T4 sequence (Q9UBE0 whole entry): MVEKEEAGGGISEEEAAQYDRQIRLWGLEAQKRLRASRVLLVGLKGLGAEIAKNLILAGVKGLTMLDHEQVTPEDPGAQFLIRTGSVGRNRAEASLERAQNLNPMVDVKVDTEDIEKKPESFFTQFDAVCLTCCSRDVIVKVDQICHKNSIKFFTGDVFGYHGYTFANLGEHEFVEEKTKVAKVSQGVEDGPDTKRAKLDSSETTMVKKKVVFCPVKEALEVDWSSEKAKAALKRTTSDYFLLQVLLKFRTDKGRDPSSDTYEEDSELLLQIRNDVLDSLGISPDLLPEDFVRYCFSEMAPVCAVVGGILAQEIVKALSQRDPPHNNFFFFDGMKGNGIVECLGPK
T4 sequence (Q9UBT2 whole entry): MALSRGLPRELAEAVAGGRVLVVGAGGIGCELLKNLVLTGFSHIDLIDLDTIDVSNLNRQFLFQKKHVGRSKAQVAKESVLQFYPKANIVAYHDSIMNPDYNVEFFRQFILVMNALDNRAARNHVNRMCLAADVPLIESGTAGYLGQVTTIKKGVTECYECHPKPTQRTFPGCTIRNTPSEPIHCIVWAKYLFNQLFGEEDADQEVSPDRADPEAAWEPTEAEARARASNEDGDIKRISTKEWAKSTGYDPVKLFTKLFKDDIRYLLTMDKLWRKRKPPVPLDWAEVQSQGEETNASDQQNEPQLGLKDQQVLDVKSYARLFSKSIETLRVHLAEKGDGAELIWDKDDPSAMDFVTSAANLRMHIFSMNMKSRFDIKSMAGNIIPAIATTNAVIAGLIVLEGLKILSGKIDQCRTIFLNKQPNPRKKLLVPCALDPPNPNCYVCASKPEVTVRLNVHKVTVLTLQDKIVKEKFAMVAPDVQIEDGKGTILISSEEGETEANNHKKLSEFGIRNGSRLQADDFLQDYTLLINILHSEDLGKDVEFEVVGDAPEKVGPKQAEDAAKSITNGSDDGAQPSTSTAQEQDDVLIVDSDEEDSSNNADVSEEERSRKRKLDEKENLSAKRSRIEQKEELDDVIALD
Phospholipase A2, sequence (P04054 whole entry): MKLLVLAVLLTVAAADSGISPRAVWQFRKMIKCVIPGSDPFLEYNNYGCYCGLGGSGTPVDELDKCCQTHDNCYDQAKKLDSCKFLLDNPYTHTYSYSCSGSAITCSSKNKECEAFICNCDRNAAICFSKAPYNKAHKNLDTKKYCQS
Cytochrome P450 2C9, sequence (P11712 whole entry): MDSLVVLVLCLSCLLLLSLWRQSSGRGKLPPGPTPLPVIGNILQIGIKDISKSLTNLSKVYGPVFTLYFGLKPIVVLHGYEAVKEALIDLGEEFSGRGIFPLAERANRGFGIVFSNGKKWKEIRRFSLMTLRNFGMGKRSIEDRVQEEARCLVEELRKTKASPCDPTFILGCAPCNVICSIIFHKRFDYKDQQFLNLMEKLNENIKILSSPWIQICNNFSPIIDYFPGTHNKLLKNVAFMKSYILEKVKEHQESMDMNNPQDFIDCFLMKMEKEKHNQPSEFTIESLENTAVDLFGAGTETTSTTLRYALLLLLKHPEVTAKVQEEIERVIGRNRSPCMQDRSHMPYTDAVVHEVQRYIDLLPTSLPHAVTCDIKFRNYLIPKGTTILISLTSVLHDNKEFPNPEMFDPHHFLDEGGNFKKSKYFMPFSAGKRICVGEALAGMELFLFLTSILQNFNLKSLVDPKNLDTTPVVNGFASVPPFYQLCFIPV
Cytochrome P450 2C19, sequence (P33261 whole entry): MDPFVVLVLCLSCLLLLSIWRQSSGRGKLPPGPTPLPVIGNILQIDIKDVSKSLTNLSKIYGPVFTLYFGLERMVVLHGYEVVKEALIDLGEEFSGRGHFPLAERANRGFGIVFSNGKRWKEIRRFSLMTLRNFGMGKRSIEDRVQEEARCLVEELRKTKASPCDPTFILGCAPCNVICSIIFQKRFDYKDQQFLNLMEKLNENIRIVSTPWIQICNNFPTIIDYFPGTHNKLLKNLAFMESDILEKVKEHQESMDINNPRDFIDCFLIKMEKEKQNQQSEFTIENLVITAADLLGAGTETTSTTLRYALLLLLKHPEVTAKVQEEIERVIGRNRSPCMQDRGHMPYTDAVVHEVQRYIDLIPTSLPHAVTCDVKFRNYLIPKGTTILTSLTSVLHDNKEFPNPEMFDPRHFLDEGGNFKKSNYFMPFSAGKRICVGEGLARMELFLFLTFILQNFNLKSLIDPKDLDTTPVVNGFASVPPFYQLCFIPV

Take `CC(=O)c1ccc(NC(=O)Nc2ccc3c(c2)nc(C)n3C)cc1`: the AC50 (commonly the concentration at which the activity in the assay is half-maximal) in [1] was 42.9 µM (active).
Turning to `CCCCCC(=O)Nc1ccccc1N1CCN(c2ccccc2)CC1`, the IC50 (in general, the concentration that inhibits the measured activity by half) was 5.74 µM (active) in [2] and 4.38 µM (active) in assay [3].
On to `COc1ccc2ncc(S(=O)(=O)c3ccccc3)c(N3CCC4(CC3)OCCO4)c2c1`, for which the IC50 in assay [4] was 14.5 µM (active).
As to `O=C(Nc1nnc(C2CC2)s1)c1ccc(Cl)nc1`, the IC50 in assay [5] is > 80 µM (inactive).
For `CC(=O)c1ccc(N2CCN(c3ccnc4cc(Cl)ccc34)CC2)cc1`, the values for the EC50 in assay [6] and in assay [7] were 4.05 µM (active) and > 160 µM (inactive), respectively. Moreover, the AC50 in [8] is 54.4 µM (active).
In the case of `Cc1ccc(C(=O)Nc2ncc3c(Cl)cccc3n2)cc1`, in [8], the AC50 is 2.46 µM (active).
For `CCC(=O)NC(c1cc(Cl)c2cccnc2c1O)C(C)C` (stereo not given), the AC50 is 6.68 µM (active) in assay [8] and 1.86 µM (active) in assay [9].
For `Nn1c(CSc2nc3ccccc3o2)nnc1CSc1nc2ccccc2o1`, the IC50 in assay [5] was > 80 µM (inactive).
`COc1ccc(-n2c(CNc3ccc(C)cc3)nnc2SCC(=O)Nc2nc(-c3ccccc3)cs2)cc1`: the results for the IC50 in [10], in assay [13] and in [14] were 21.4 µM (active), 21.9 µM (active) and 39.7 µM (active), respectively. Moreover, the results for the AC50 in assay [11], in assay [16] and in assay [9] were 0.355 µM (inconclusive), 7.94 µM (inconclusive) and 6.07 µM (active), respectively. Further, the EC50 (as a rule, the concentration that produces a half-maximal response) in assay [12] is 2.75 µM (active); in assay [15], 2.49 µM (active).
Take `CC(=O)c1ccc2c(c1)Cc1cc(C(C)=O)ccc1-2`: the AC50 in assay [1] was 96.8 µM (active).
As for `COc1ccc(N2Nc3[nH]nc(N)c3N2)cc1`, the IC50 in assay [17] was 10.4 µM (active). Further, the AC50 in [18] was 3.12 µM (active).
Consider `O=C(C1CCCN(c2ncnc3c2nc2n3CCCCC2)C1)N1CCN(c2ccc(F)cc2)CC1` (stereo not given), for which the IC50 in assay [4] was 20.9 µM (active).
For `c1cc(-c2cc3cc4c(cc3cn2)OCO4)cs1`, the AC50 in assay [1] was 141 µM (active).
Regarding `CC(=O)c1ccc(N2CCN(C(=O)C3CCCN(c4ncnc5c4nc4n5CCCCC4)C3)CC2)cc1` (stereo not given), the results for the IC50 in assay [19] and in assay [4] were > 79 µM (inactive) and 18.2 µM (active), respectively.
With `CCCCN1CCN(c2ccc(-c3nc4c(C(N)=O)cccc4[nH]3)cc2)CC1`, the Ki (usually a measure of affinity in units of concentration, obtained from inhibition or displacement) was 0.0501 µM (active) in assay [20], 0.794 µM (active) in [21] and > 5.01 µM (inactive) in assay [22].
For `COc1ccc(-c2cc(-c3ccccc3)c3cc(Cl)ccc3n2)cc1`, the values for the Ki in assay [20] and in [21] were 0.251 µM (active) and 0.0501 µM (active), respectively.
With `NC(=NO)c1ccccc1S(=O)(=O)Nc1ccc2c(c1)C(=NO)c1ccccc1-2`, the Ki was 0.0251 µM (active) in assay [20], 0.631 µM (active) in assay [21] and > 5.01 µM (inactive) in [22].
As for `C[C@H]1CN([C@@H](C)CO)C(=O)c2cccc(NC(=O)c3ccncc3)c2O[C@@H]1CN(C)Cc1ccc2c(c1)OCO2`, in assay [23], the AC50 was 0.277 µM (active).
`Cc1ccc(S(=O)(=O)Nc2ccc3c(c2)CC(=O)N([C@H](C)CO)C[C@@H](C)[C@H](CN(C)Cc2ccc4c(c2)OCO4)O3)cc1`: the AC50 in [23] was 4.35 µM (active).
On the same count and under the same terms, for `C[C@@H]1CN([C@H](C)CO)C(=O)c2cccc(NC(=O)Nc3ccc(C(F)(F)F)cc3)c2O[C@@H]1CN(C)C(=O)NC1CCCCC1` the value was 5.14 µM (active).
For `NC(=O)N/N=C/c1ccc(-n2nncc2-c2ccc(Cl)cc2)cc1`, the IC50 in [5] was > 80 µM (inactive).
With `Oc1c(Br)cc(Br)cc1/C=N/n1c(S)nnc1-c1ccccc1`, the results for the IC50 in [2] and in assay [3] were 8.08 µM (active) and 33.5 µM (inactive), respectively.
As for `C/C(Cn1nnc([N+](=O)[O-])n1)=N\NC(=O)c1cccc(Cl)c1`, the IC50 in assay [5] was > 80 µM (inactive). Further, the EC50 in assay [24] was 0.416 µM (active); in assay [25] it was > 60 µM (not active).
As for `C[N+](C)(CCOc1ccccc1)Cc1ccccc1`, the AC50 in assay [18] was 10.5 µM (active).
